What was measured:
TrkA = TrkA (Homo sapiens (Human), UniProt P04629); assay: TrkA enzyme activity test; assay type: biochemical
Procedure: Experimental Example 1: TrkA Enzyme Activity Test
TK detection kit Cisbio-62TK0PEJ
Detection plate PerkinElmer-6007299
Envision PerkinElmer-2104
20 mM Hepes (pH 7.5), 10 mM MgCl2 (magnesium chloride), 1 mM EGTA, 0.01% Brij35, 0.1 mM Orthovanadate (sodium vanadate), 0.02 g/mL BSA (bovine serum protein), 2 mM DTT (dithiothreitol), 1% DMSO
This experiment was performed using Cisbio's homogeneous time-resolved fluorescence conjugate energy transfer (HTRF® method) for activity detection. In the detection plate, enzyme, biotin-labeled peptide substrate, ATP and detection compound were mixed and incubated for reaction. […] The data were represented by fluorescence signal readings at 665 nm and 620 nm respectively, with a high ratio of 665 nm/620 nm indicating high activity and a low ratio of 665 nm/620 nm indicating inhibition of activity. […]
In a 10 μL reaction system with a buffer of 20 mM Hepes (pH 7.5), 10 mM MgCl2, 1 mM EGTA, 0.01% Brij35, 0.1 mM sodium vanadate, 0.02 g/mL BSA, 2 mM DTT, 1% DMSO medium, containing 15 nM TrkA kinase, 0.3 μM biotin-TK peptide (biotin-labeled tyrosine kinase substrate polypeptide), 100 μM ATP were incubated at 23° C. for 120 minutes. […]

[1] = In vivo pharmacokinetics study after single administration in Beagle dogs
Procedure: Experimental Example 4: In Vivo Pharmacokinetics Study after Single Administration in Beagle Dogs
Male Beagle dogs were used as the test animals, and the plasma concentrations of the compounds were determined after a single administration and the pharmacokinetic behavior was evaluated.
Beagle (male, 6 to 12 kg, more than 6 months old, Beijing Mars Biotechnology Co., Ltd.)
The purpose of the experiment was to test the pharmacokinetic characteristics of the tested compounds in non-rodents after intravenous injection and oral administration, in the experiment, the tested compounds were prepared into a clear solution or a homogeneous suspension, and the beagle dogs were given a single intravenous injection or oral administration. In the intravenous injection group, the solvent was a certain proportion of HP-β-cyclodextrin solution of dimethyl sulfoxide or a certain proportion of ethanol, and a normal saline solution of polyethylene glycol 400, vortexed and ultrasonicated to prepare a […] clear solution and filtered by microporous membrane for later use; oral solvent was a certain proportion of HP-β cyclodextrin solution of dimethyl sulfoxide or a certain proportion of sodium carboxymethyl cellulose solution, after the compound to be tested was mixed with the solvent, the solvent was vortexed and ultrasonicated to prepare a 3 mg/mL uniform suspension for later use.
(§1) C0 is the initial concentration, T1/2 is the elimination half-life, Vdss is the steady-state apparent volume of distribution, Cl is the total clearance, and AUC0-inf is area under the plasma drug concentration-time curve from 0 time to extrapolation to infinity area, Cmax is the peak concentration, and Tmax is the peak time.

[2] = tested on: human cytochrome P450 isoenzymes; assay: Cytochrome P450 isoenzyme inhibitory activity test, overall conclusion; assay type: in vitro ADME; conditions: human liver microsomes
Procedure: (§2) Experimental Example 2: Cytochrome P450 Isoenzyme Inhibitory Activity Test The inhibitory activities of test compound against different isoforms of human cytochrome P450 isoenzymes were determined. The test compound, standard inhibitor (100×final concentration) and mixed substrate working solution were prepared; the microsome frozen in −80° C. refrigerator was taken out and thawed. […]

[3] = In vivo pharmacokinetics study after single administration in rats; design: species or system Sprague Dawley rats
Procedure: Experimental Example 3: In Vivo Pharmacokinetics Study after Single Administration in Rats
Male SD rats were used as the test animals, and the plasma concentrations of the compound were determined after a single administration and the pharmacokinetic behavior was evaluated.
Sprague Dawley rats (male, 200 to 300 g, 7 to 9 weeks old, Shanghai Charles River Laboratory Animal Co., LTD.)
Standard protocols were used to test the pharmacokinetic characteristics of the tested compounds in rodents after intravenous injection and oral administration, in the experiment, the tested compounds were prepared into a clear solution or a homogeneous suspension, and the rats were given a single intravenous injection and oral administration. In the intravenous injection group, the solvent was a certain proportion of ethanol and normal saline solution or a certain proportion of HP-β cyclodextrin solution of dimethyl sulfoxide (the pH was adjusted 3 to 4), the mixture was vortex-stirred to prepare 1 mg/mL clear solution and filtered by a microporous membrane for later use; oral solvent was a certain proportion of sodium carboxymethyl cellulose solution or a certain proportion of HP-β cyclodextrin solution of dimethyl sulfoxide (the pH was adjusted to above 4), after the compound to be tested was mixed with the solvent, the mixture was vortex-stirred to obtain a uniform suspension of 30 mg/mL for later use.
as §1

CYP2D6 = CYP2D6 (Homo sapiens (Human), UniProt P10635); assay: Cytochrome P450 isoenzyme inhibitory activity test (human liver microsomes); assay type: in vitro ADME; conditions: heading: Cytochrome P450 isoenzyme IC50 CYP2D6, 37° C., 10 minutes
Procedure: (§3) Experimental Example 2: Cytochrome P450 Isoenzyme Inhibitory Activity Test The inhibitory activities of test compound against different isoforms of human cytochrome P450 isoenzymes were determined. The test compound, standard inhibitor (100×final concentration) and mixed substrate working solution were prepared; the microsome frozen in −80° C. refrigerator was taken out and thawed. 2 μL of the compound to be tested and standard inhibitor solution were added to the corresponding wells, and at the same time, 2 μL of the corresponding solvent was added to the non-inhibitor control wells (NIC) and the blank control wells; secondly, 20 μL of mixed substrate solution was added to the corresponding wells except the blank wells (20 μL of Pb was added to the blank wells); human liver microsome solution was prepared (the solution was put back in the refrigerator immediately after using and marking the date), and then 158 μL of human liver microsome solution was added to all wells; the sample plate was put in a 37° C. water bath for pre-incubation, and then a coenzyme factor (NADPH) solution was prepared; after 10 minutes, 20 μL of NADPH solution was added to all wells, the sample plate was shaken well, and incubated in a 37° C. water bath for 10 minutes; at the corresponding time point, 400 μL of cold acetonitrile solution (internal standard is 200 ng/mL tolbutamide and labetalol) was added to terminate the reaction; after the plates were evenly mixed, the mixture was centrifuged at 4000 rpm for 20 minutes to precipitate protein; 200 μL of supernatant was added into 100 μL of water, shaken well and detected by LC/MS/MS.

CYP3A4 = CYP3A4 (Homo sapiens (Human), UniProt P08684); assay: as above; assay type: in vitro ADME; conditions: heading: Cytochrome P450 isoenzyme IC50 CYP3A4, 37° C., 10 minutes
Procedure: as §3

CYP2C9 = CYP2C9 (Homo sapiens (Human), UniProt P11712); assay: as above; assay type: in vitro ADME; conditions: heading: Cytochrome P450 isoenzyme IC50 CYP2C9, 37° C., 10 minutes
Procedure: as §3

CYP2C19 = CYP2C19 (Homo sapiens (Human), UniProt P33261); assay: as above; assay type: in vitro ADME; conditions: heading: Cytochrome P450 isoenzyme IC50 CYP2C19, 37° C., 10 minutes
Procedure: as §3

CYP1A2 = CYP1A2 (Homo sapiens (Human), UniProt P05177); assay type: in vitro ADME; conditions: microsomes, 10 min
Procedure: as §2

[4] = dog, plasma, 2 mg/kg, male Beagle dogs, 2 mpk intravenous injection
[5] = dog, plasma, 15 mg/kg, male Beagle dogs, 15 mpk oral
[6] = Sprague Dawley, rat, plasma, 2 mg/kg, male rats, 2 mpk intravenous injection
[7] = Sprague Dawley, rat, plasma, 300 mg/kg, male rats, 300 mpk oral

TrkA, sequence (P04629 440-796): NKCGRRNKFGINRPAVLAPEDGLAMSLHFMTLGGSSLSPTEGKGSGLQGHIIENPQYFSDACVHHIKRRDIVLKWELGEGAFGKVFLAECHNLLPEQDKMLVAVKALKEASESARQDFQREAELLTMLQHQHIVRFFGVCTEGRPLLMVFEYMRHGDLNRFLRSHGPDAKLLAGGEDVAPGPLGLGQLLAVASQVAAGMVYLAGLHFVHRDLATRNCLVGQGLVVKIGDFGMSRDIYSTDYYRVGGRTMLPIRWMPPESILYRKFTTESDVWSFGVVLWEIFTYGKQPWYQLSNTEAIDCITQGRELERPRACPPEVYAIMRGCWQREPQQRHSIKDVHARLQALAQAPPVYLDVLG
CYP2D6, sequence (P10635 whole entry, canonical isoform): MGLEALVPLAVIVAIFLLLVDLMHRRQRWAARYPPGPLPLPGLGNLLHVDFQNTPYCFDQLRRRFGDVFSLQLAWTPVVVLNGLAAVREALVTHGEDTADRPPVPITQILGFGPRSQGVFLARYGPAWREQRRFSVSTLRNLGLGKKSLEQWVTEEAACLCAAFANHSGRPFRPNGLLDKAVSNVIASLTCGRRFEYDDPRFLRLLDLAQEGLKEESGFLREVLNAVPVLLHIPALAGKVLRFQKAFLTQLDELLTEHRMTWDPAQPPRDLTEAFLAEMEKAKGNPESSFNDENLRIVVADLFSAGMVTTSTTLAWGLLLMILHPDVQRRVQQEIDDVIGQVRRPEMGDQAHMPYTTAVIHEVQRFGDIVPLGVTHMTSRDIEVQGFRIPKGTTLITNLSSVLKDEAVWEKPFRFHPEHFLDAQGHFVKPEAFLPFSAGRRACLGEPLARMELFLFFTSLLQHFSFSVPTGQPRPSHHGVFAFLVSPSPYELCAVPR
CYP1A2, sequence (P05177 whole entry): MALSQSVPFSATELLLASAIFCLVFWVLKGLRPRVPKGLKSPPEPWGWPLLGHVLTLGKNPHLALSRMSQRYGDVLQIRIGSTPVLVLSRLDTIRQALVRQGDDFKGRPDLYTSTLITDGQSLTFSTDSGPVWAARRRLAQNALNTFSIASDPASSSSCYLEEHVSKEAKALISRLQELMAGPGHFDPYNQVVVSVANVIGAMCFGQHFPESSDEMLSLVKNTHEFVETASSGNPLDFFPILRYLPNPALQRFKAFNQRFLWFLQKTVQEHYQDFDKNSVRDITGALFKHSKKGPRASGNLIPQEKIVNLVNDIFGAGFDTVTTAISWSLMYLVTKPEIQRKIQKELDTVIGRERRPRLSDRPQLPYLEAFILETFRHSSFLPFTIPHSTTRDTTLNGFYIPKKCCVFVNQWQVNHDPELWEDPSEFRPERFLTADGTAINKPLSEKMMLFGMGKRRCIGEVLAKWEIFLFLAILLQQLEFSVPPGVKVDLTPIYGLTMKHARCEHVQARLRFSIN
CYP2C19, sequence (P33261 whole entry): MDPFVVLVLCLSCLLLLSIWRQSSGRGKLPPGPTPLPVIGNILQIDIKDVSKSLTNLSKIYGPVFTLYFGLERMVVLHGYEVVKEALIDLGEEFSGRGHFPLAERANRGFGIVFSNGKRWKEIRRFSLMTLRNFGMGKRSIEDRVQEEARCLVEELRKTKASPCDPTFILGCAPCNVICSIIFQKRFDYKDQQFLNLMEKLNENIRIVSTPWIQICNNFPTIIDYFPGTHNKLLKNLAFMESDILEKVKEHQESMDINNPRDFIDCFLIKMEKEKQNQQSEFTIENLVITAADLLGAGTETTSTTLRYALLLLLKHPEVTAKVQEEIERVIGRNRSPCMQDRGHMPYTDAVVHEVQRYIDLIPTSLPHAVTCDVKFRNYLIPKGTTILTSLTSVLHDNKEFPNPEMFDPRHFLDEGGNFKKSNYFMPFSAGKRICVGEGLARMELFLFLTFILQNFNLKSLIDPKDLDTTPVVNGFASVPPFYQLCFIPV
CYP2C9, sequence (P11712 whole entry): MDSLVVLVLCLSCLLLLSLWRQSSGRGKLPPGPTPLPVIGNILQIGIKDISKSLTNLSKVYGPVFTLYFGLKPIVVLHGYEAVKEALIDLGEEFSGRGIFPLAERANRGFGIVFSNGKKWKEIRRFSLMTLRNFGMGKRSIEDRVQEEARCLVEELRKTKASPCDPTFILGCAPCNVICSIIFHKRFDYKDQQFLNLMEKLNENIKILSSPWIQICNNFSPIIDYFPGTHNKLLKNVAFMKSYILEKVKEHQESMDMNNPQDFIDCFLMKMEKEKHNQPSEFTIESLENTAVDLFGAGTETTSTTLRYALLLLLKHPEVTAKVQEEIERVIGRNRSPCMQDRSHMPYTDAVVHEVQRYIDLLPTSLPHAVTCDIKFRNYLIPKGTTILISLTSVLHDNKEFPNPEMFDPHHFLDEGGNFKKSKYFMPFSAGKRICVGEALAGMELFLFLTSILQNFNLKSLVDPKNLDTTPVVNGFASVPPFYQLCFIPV
CYP3A4, sequence (P08684 whole entry): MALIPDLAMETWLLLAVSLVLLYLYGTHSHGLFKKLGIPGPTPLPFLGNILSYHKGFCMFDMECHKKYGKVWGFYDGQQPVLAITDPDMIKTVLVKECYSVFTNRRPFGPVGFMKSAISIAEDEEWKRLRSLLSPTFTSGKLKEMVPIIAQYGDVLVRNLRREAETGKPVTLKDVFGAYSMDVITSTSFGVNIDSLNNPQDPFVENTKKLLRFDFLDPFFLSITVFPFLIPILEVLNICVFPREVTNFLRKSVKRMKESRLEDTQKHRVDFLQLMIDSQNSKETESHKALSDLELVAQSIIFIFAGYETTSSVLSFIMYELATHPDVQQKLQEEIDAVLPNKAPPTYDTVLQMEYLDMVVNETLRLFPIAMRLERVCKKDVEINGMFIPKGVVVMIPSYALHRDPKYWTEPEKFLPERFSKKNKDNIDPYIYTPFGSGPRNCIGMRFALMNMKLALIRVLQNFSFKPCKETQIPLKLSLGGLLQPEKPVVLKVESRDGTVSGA

inhibitory effect on TrkA enzyme (in words) (TrkA): significant inhibitory effect
IC50 (TrkA; 15 nM TrkA kinase, 100 μM ATP, 23° C., 120 minutes, read-out: Trk AIC50): 0.00664 µM
AUC(0-inf) [1, 4]: 1840 ng·h/mL
C0 [1, 4]: 3940 ng/mL
clearance [1, 4]: 18.4 mL/min/kg
half-life [1, 4]: 0.72 h
Vd ([1]; dog, plasma, 2 mg/kg, male Beagle dogs, 2 mpk intravenous injection, read-out: Vdss): 0.71 L/kg
AUC(0-inf) [1, 5]: 12600 ng·h/mL
Cmax [1, 5]: 4560 ng/mL
Tmax [1, 5]: 1 h
bioavailability [1, 5]: 91.3%
half-life [1, 5]: 1.2 h
risk of drug-drug interaction (in words) [2]: lower risk of drug-drug interaction
AUC(0-inf) [3, 6]: 1970 ng·h/mL
C0 [3, 6]: 3620 ng/mL
clearance [3, 6]: 17.1 mL/min/kg
half-life [3, 6]: 0.61 h
Vd ([3]; Sprague Dawley, rat, plasma, 2 mg/kg, male rats, 2 mpk intravenous injection, read-out: Vdss): 0.7 L/kg
AUC(0-inf) [3, 7]: 210000 ng·h/mL
Cmax [3, 7]: 47600 ng/mL
Tmax [3, 7]: 1.5 h
bioavailability [3, 7]: 71.1%
half-life [3, 7]: 1.7 h
IC50 (CYP2D6): 31.7 µM
IC50 (CYP3A4): > 50 µM
IC50 (CYP2C9): 43.6 µM
IC50 (CYP2C19): > 50 µM
IC50 (CYP1A2): > 0.05 µM
Compound: COCCN1C[C@@H](n2ccc(F)c2)[C@H](NC(=O)Nc2c(C)c(-c3cnc(C4(F)COC4)nc3)nn2-c2ccccc2)C1 [Compounds of formula (1)]
pharmacokinetic properties and oral bioavailability (in words) ([1]; beagle dogs): good pharmacokinetic properties and oral bioavailability
pharmacokinetic properties and oral bioavailability (in words) ([3]; rats): good pharmacokinetic properties and oral bioavailability

Reference: US11691965B2, “Method for preparing pyrrolidinyl urea derivative” (ZHANGZHOU PIEN TZE HUANG PHARMACEUTICAL CO., LTD., priority 2020, dated 2023)
